PMC11939470, “The Cyclic Antimicrobial Peptide C-LR18 Has Enhanced Antibacterial Activity, Improved Stability, and a Longer Half-Life Compared to the Original Peptide” (Antibiotics, 2025)
Where a SMILES comes first, the peptide text is derived from it. Bridges are numbered along the chain shown (N, C = ends).

Assays:
[1] = test system: rabbit red blood cells; test: Hemolysis activity determination; type: cell-based; conditions: 2% rabbit red blood cells in PBS pH 7.4, 37 °C 1 h, OD 570 nm, repeated three times
Description: Briefly, the collected rabbit red blood cells [purchased from Oumarsi (Shanghai, China) Biotechnology Co., Ltd.] were washed three times with PBS (pH 7.4) and diluted to 2% (v/v). A total of 100 µL of rabbit red blood cells suspension were mixed with 100 µL of PBS (pH 7.4) containing different concentrations of peptides (1–256 µM) in a 96-well plate. The positive control was a mixture of 100 µL of red blood cell suspension and 100 µL of 0.2% TritonX-100 solution, and the negative control was a mixture of 100 µL of red blood cell suspension and 100 µL of PBS solution. The mixtures were incubated at 37 °C for 1 h, then centrifuged at 1000× g for 10 min. The OD value at 570 nm of the supernatant was measured using a microplate reader (TECAN GENios F129004, Tecan, Salzburg, Austria). The hemolytic index was calculated according to the following formula:Hemolytic index % = (OD peptide − ODPBS)/(ODT ritonX-100 − ODPBS) × 100%(2)
The concentration of the antimicrobial peptide causing 10% erythrocyte hemolysis was defined as the minimum hemolytic concentration of the antimicrobial peptide on rabbit red blood cells. The experiment was repeated three times.

[2] = Half-life of peptides in plasma in vitro (HPLC); type: in vitro ADME, rat
Description: Half-life of peptides in vitro was determined using HPLC according to the method described in [30]. Blood from SPF SD rats was collected in a centrifuge tube containing 0.5% heparin sodium via cardiac sampling. Plasma was separated and stored at −80 °C until analyzed. The plasma samples with final concentrations of 25 μg/mL, 50 μg/mL, 100 μg/mL, 200 μg/mL, 400 μg/mL, and 750 μg/mL were prepared by mixing 1500 μg/mL of antimicrobial peptides with rat plasma, then adding acetonitrile containing 0.1% TFA at 1/1 volume. After vortexing for 30 s, the samples were centrifuged at 14,000 r/min for 20 min, the supernatant was aspirated, sterilized using a 0.22 μm sterilization filter, and 30 μL of the sample was used for HPLC determination. After HPLC detection, the value of the chromatographic peak area was counted, the mathematical relationship between the sample concentration and the chromatographic peak area was calculated, and the standard curve was drawn. The standard curve was regressio-calculated by linear fitting Y = aX + b and weighted least square method (w = 1/c2).
The 1 mg/mL peptide solution was mixed with SD rat plasma and incubated in a water bath at 37 °C. Samples were taken at different time points of 0, 20, 30, 40, 60, 80, 100, 120, 140, 160, 180, 200, 210, 240, 300, 400, 500, and 600 min. After vortexing for 30 s, the samples were centrifuged at 14,000 r/min for 20 min, the supernatant was aspirated and sterilized using a 0.22 μm sterilization filter, and 30 μL of the sample was used for HPLC determination. The experiment was repeated three times. The peak area measured by HPLC was substituted into the standard curve obtained by the above experiment, the peptide concentration at different time points was calculated, and the half-life of peptides in plasma was calculated.

[3] = test system: E. coli Y1; test: Bacterial load in liver and spleen of mice; type: in vivo; conditions: 7.5 mg/kg tail vein 1 h after ip E. coli Y1, one mouse every 24 h
Description: One hour after the mice were intraperitoneally injected with 0.5 mL of E. coli Y1 suspension (10^9 CFU/mL), C-LR18 was injected into the mice at a dose of 7.5 mg/kg through the tail vein. The normal saline group was used as negative control, and the polymyxin B group (1 mg/kg) was used as positive control. After that, one mouse was taken every 24 h, sacrificed via cervical dislocation, and the liver and spleen were removed, weighed, and added to PBS buffer for grinding at 3000 r/min for 2 min. The abrasive solution was diluted with sterile PBS (1:10,000), and 0.1 mL diluent was evenly coated in solid MH medium and cultured at 37 °C overnight. Colony counting was performed on the samples, and the bacterial colonization amount in liver and spleen was calculated.

[4] = Half-life and pharmacokinetics in SD rats after caudal vein administration (HPLC); type: in vivo
Description: Half-life of peptides in SD rats was determined via HPLC according to the method described in [31]. The SD rats were maintained at constant room temperature [(25 ± 2) °C] with free access to food and water for 48 h. Each SD rat was weighed to an accuracy of 0.10 g, numbered, and grouped randomly, with 6 rats in each group. LR18 and C-LR18 were injected into SD rats via tail vein at a dose of 5 mg/kg body weight. A total of 200 μL of blood was collected from the orbital venous plexus at different time points of 0, 0.5, 0.8, 1.0, 1.5, 2.5, 3.5, 5, 10, 30, and 60 min, and placed into a centrifuge tube containing 0.5% heparin sodium. After centrifugation at 3000 r/min for 15 min, the supernatant was absorbed into a new centrifuge tube, and then acetonitrile containing 0.1% TFA was added at 1/1 volume. Vortexing for 30 s, the samples were centrifuged at 14,000 r/min for 20 min, the supernatant was aspirated and sterilized using a 0.22 μm sterilization filter, and 30 μL of the sample was used for HPLC determination. The pharmacokinetic parameters were calculated using Phoenix Winnonlin 7.0 software and analyzed with non-atrioventricular model. Drug–time curves were plotted using Graphpad Prim, and Mean ± SD was used to interpolate each point during drug–time curve fitting.

[5] = test system: E. coli Y1; test: Therapeutic experiment, survival of E. coli-infected mice; type: in vivo, KM mice; conditions: within 72 h, 10 mice per group
Description: The mice (female, 18–21 g) were randomly divided into 6 groups, with PBS dilution as the control group. A total of 1–5 groups were injected intraperitoneally with 0.5 mL of E. coli solution containing […] CFU/mL, respectively. After inoculation, the mice were observed continuously for 5 days, and the mortality rate was recorded. The minimum dose (LD 100) at which all mice die within 5 days was used as the optimal dose for the bacterial attack in this experiment.
In order to further evaluate the therapeutic potential of antimicrobial peptide C-LR18, a mouse model infected with E. coli was constructed in this study. The Km mice (female, 18–21 g) were maintained at constant room temperature [(25 ± 2) °C] with free access to food and water for 48 h. […] A total of 0.5 mL of E. coli Y1 suspension (10^9 CFU/m L) was intraperitoneally injected into each group of mice. One hour after challenge, different doses of C-LR18 (2.5 mg/kg, 5 mg/kg, and 7.5 mg/kg) and polymyxin B (5 mg/kg) were intraperitoneally injected into mice. The group injected with the same dose of physiological water was the control group.

[6] = test system: E. coli Y1; test: Bacterial colony number in mouse abdominal cavity; type: in vivo; conditions: 24 h after treatment, three mice, control group 1 × 10^9 CFU/mL
Description: One hour after the mice were intraperitoneally injected with 0.5 mL of E. coli Y1 suspension (10^9 CFU/mL), different doses of C-LR18 (2.5 mg/kg, 5 mg/kg, and 7.5 mg/kg) were injected into the mice through the tail vein, respectively. After 24 h, 2 mL sterile saline was injected into the abdominal cavity of the mice, and the mice were killed via cervical dislocation. The peritoneal cavity of mice was opened, the peritoneal fluid was absorbed, and the peritoneal fluid was diluted with sterilized MH medium in a double ratio. After coating the plate, the peritoneal fluid was cultured at 37 °C for 16–20 h, and the colony count was performed. Three mice were taken from each group.

Question: Which “MHC10 (lowest concentration inducing 10% hemolysis)” value [1] does the source give for `CC(C)C[C@@H]1NC(=O)[C@H](CCCNC(=N)N)NC(=O)[C@H](CCCNC(=N)N)NC(=O)[C@H](CC(C)C)NC(=O)[C@H](CC(C)C)NC(=O)[C@H](CCCNC(=N)N)NC(=O)[C@H](CC(C)C)NC(=O)[C@@H]2CCCN2C(=O)[C@H](CCCNC(=N)N)NC(=O)[C@H](CCCNC(=N)N)NC(=O)[C@@H]2CCCN2C(=O)[C@H](CC(C)C)NC(=O)[C@H](CCCNC(=N)N)NC(=O)[C@H](CC(C)C)NC(=O)[C@H](CC(C)C)NC(=O)[C@H](CCCNC(=N)N)NC(=O)[C@H](CCCNC(=N)N)NC(=O)[C@H](CC(C)C)NC(=O)[C@@H](N)CSSC[C@@H](C(=O)O)NC1=O` [C-LR18] (H-CLRRLLRLPRRPLRLLRRLC-OH; disulfide 1-20; N-terminus and C-terminus assumed) here?
Answer: 128 µM

Question: And the half-life ([2]; 1 mg/mL peptide solution mixed with SD rat plasma (heparin), 37 °C water bath, 0–600 min, HPLC, repeated three times)?
Answer: 209 ± 20.2 min

Question: And the “peptide degraded in plasma” value ([2]; after 210 min, rat plasma 37 °C, HPLC)?
Answer: More than half

Question: What about the “peptide detected in plasma samples” value ([2]; after 600 min, rat plasma 37 °C, HPLC) of the same compound?
Answer: no C-LR18 could be detected

Question: And the “half-life in rat plasma relative to LR18” value ([2]; in vitro rat plasma)?
Answer: 3.37 times

Question: What about the “prolongation of half-life in rat plasma versus LR18” value ([2]; in vitro rat plasma) of the same compound?
Answer: 147.33 min

Question: And the “bacterial colonization in liver and spleen” value [3]?
Answer: significantly less than that in the negative control group

Question: And the “half-life in rats relative to LR18” value ([4]; SD rats iv)?
Answer: 4.66 times

Question: And the “prolongation of half-life in rats versus LR18” value ([4]; SD rats iv)?
Answer: 10 min

Question: And the Cmax ([4]; SD rats, tail vein, 5 mg/kg, HPLC, n = 3)?
Answer: 254.23 ± 6.30 µg/mL

Question: What about the AUC0-t ([4]; SD rats, tail vein, 5 mg/kg, non-compartmental, HPLC, n = 3 (method: 6 rats per group)) of the same compound?
Answer: 3376.13 ± 37.72 µg·min/mL

Question: What about the MRT ([4]; rat, plasma, iv, SD rats, tail vein, 5 mg/kg, HPLC, n = 3, read-out: MRT0-t (converted)) of the same compound?
Answer: 13.5 min

Question: And the half-life ([4]; rat, plasma, iv, SD rats, tail vein, 5 mg/kg, HPLC, n = 3, read-out: T1/2β (terminal elimination half-life))?
Answer: 12.7 ± 0.79 min

Question: What about the “survival rate of mice” value ([5]; 2.5 mg/kg ip 1 h after ip 0.5 mL E. coli Y1 10^9 CFU/mL) of the same compound?
Answer: 20%

Question: And the “survival rate of mice” value ([5]; 5 mg/kg ip 1 h after ip 0.5 mL E. coli Y1 10^9 CFU/mL)?
Answer: 40%

Question: What about the “survival rate of mice” value ([5]; 7.5 mg/kg ip 1 h after ip 0.5 mL E. coli Y1 10^9 CFU/mL) of the same compound?
Answer: 60%

Question: And the “number of colonies in mouse abdominal cavity” value (“number of colonies” below) ([6]; 2.5 mg/kg)?
Answer: 10^7 CFU/mL

Question: And the “number of colonies” value ([6]; 5.0 mg/kg)?
Answer: 10^6 CFU/mL

Question: What about the “number of colonies” value ([6]; 7.5 mg/kg) of the same compound?
Answer: 10^4 CFU/mL
